Assay results as given in US20020161202A1, “Apo-2DcR” (Genentech, Inc., priority 1997, published 2002).
Where a SMILES comes first, the peptide text is derived from it. [ ]: non-standard residue; d: D form. The star is where a group is joined. Nle = CCCC[C@H](N)C(=O)O; Cbz = O=C(OCc1ccccc1)*; CH2F = FC*

Legend:
HeLa cells [1] = assay: Effect of preincubation with inhibitors on Apo-2L-induced apoptosis in HeLa cells (FACS); format: cell-based, human; settings: Apo-2L 1 μg/ml, 5 hour incubation, FIG. 12C
Procedure: The effects of a NF-κB inhibitor, ALLN (N-acetyl-Leu-Leu-norleucinal) and a […] inhibitor, cyclohexamide, were also tested. The HeLa cells (plated in 6-well dishes) were preincubated with PBS buffer, ALLN (Calbiochem) (40 μg/ml) or cyclohexamide (Sigma) (50 μg/ml) for 1 hour before addition of Apo-2L (1 μg/ml). After a 5 hour incubation, apoptosis was analyzed by FACS (see FIG. 12C).

HeLa cells [2] = assay: Apoptosis induction by Apo-2 in transfected HeLa cells, FACS analysis of phosphatydilserine exposure; format: cell-based, human; settings: inhibitor added at 200 μM at the time of transfection, FIG. 11C
Source text: (§1) Because death domains can function as oligomerization interfaces, over-expression of receptors that contain death domains may lead to activation of signaling in the absence of ligand [Frazer et al., supra, Nagata et al., supra]. To determine whether Apo-2 was capable of inducing cell death, human 293 cells or HeLa cells (ATCC CCL 2.2) were transiently transfected by calcium phosphate precipitation (293 cells) or electroporation (HeLa cells) with a pRK5 vector or pRK5-based plasmids encoding Apo-2 and/or CrmA. When applicable, the total amount of plasmid DNA was adjusted by adding vector DNA. Apoptosis was assessed 24 hours after transfection by morphology (FIG. 11A); DNA fragmentation (FIG. 11B); or by FACS analysis of phosphatydilserine exposure (FIG. 11C) as described in Marsters et al., Curr. Biol., 6:1669 (1996).
For samples assayed by FACS, the HeLa cells were co-transfected with pRK5-CD4 as a marker for transfection and apoptosis was determined in CD4-expressing cells; FADD was co-transfected with the Apo-2 plasmid; the data are means±SEM of at least three experiments, as described in Marsters et al., Curr. Biol., 6:1669 (1996). The caspase inhibitors, DEVD-fmk (Enzyme Systems) or z-VAD-fmk (Research Biochemicals Intl.) were added at 200 μM at the time of transfection.

HeLa cells [3] = assay: Apo-2L-induced apoptosis in HeLa cells by FACS and its inhibition by soluble Apo-2 ECD; format: cell-based, human
Procedure: Soluble Apo-2L ([…], prepared as described in Pitti et al., supra) was pre-incubated for 1 hour at room temperature with PBS buffer or affinity-purified Apo-2 ECD (5 μg/ml) together with anti-Flag antibody (Sigma) (1 μg/ml) and added to HeLa cells. After a 5 hour incubation, the cells were analyzed for apoptosis by FACS (as above) (FIG. 11D).

Apo-2L = assay: Co-precipitation assay of Apo-2 ECD-Flag with poly-histidine-tagged Apo-2L; format: binding; settings: Apo-2 ECD-Flag supernatant with 5 μg poly-histidine-tagged soluble Apo-2L; FIG. 10
Procedure: To determine whether Apo-2 and Apo-2L interact or associate with each other, supernatants from mock-transfected 293 cells or from 293 cells transfected with Apo-2 ECD-Flag (described in Example 6 above) (5 ml) were incubated with 5 μg poly-histidine-tagged soluble Apo-2L [Pitti et al., supra] for 30 minutes at room temperature and then analyzed for complex formation by a co-precipitation assay.
The samples were subjected to immunoprecipitation using 25 μl anti-Flag conjugated agarose beads (Sigma) or Nickel-conjugated agarose beads (Qiagen). After a 1.5 hour incubation at 4° C., the beads were spun down and washed four times in phosphate buffered saline (PBS). By using anti-Flag agarose, the Apo-2L was precipitated through the Flag-tagged Apo-2 ECD; by using Nickel-agarose, the Apo-2 ECD was precipitated through the His-tagged Apo-2L. The precipitated proteins were released by boiling the beads for 5 minutes in SDS-PAGE buffer, resolved by electrophoresis on 12% polyacrylamide gels, and then detected by immunoblot with anti-Apo-2L or anti-Flag antibody (2 μg/ml) as described in Marsters et al., J. Biol. Chem., (1997).

Fas/Apo-1 ligand = biological target: T1, Fas/Apo-1 ligand (Homo sapiens, UniProt P48023); assay: BIACORE analysis of Apo-2 ECD; format: binding
T1 construct: purchased Alexis Biochemicals
T1 sequence (P48023 103-281 limits assumed): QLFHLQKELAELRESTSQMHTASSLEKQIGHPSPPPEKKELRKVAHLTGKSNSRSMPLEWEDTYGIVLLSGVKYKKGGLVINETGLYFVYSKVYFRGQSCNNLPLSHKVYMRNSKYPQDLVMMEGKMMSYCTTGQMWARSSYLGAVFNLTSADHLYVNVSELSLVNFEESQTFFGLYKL
Procedure: (§2) The binding interaction was further analyzed by purifying Apo-2 ECD from the transfected 293 cell supernatants with anti-Flag beads (see Example 6) and then analyzing the samples on a BIACORE™ instrument. The BIACORE™ analysis indicated a dissociation constant (Kd) of about 1 nM.

TNF-alpha = TNF-alpha (Homo sapiens, UniProt P01375); assay: BIACORE analysis of Apo-2 ECD; format: binding
Procedure: as §2

lymphotoxin-alpha = biological target: T2, lymphotoxin-alpha (Homo sapiens, UniProt P01374); assay: BIACORE analysis of Apo-2 ECD; format: binding
T2 sequence (P01374 35-205): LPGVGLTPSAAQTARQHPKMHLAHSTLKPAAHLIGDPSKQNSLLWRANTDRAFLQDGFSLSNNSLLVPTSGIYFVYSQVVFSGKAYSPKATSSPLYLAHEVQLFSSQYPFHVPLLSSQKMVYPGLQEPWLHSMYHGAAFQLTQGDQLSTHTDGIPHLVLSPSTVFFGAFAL
Procedure: as §2

Human 293 cells = assay: Induction of apoptosis by Apo-2 transfection, morphology and DNA fragmentation; format: cell-based; settings: 24 hours after transfection; morphology, DNA fragmentation; FIGS. 11A and 11B
Source text: as §1

NF-κB [4] = assay: NF-κB activation in HeLa cells transfected with receptor plasmids (electrophoretic mobility shift assay); format: cell-based, human; settings: harvested 24 hours after transfection, FIG. 12A
Procedure: HeLa cells were transfected with pRK5 expression plasmids encoding full-length native sequence Apo-2, DR4 or Apo-3 and harvested 24 hours after transfection. […] Immunol., 153:5274-5284 (1994)], alone or together with a 50-fold excess of unlabelled probe, or with an irrelevant ^32P-labelled synthetic oligonucleotide […] NO: 13). In some samples, antibody to p65/RelA subunits of NF-κB (1 μg/ml; Santa Cruz Biotechnology) was added. DNA binding was analyzed by an electrophoretic mobility shift assay as described by Hsu et al., supra; Marsters et al., supra, and MacKay et al., supra.

NF-κB [5] = assay: NF-κB activity in HeLa cells treated with soluble ligand; format: cell-based, human; settings: 1 μg/ml, FIG. 12B

Sequence of TNF-alpha (P01375 77-233 limits assumed): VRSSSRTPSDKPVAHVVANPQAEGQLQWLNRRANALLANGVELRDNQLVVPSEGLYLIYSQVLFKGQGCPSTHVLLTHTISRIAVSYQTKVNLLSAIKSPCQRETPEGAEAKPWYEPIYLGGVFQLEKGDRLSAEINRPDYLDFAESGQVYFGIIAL
Sequence of Apo-2L (P50591 39-281 limits assumed): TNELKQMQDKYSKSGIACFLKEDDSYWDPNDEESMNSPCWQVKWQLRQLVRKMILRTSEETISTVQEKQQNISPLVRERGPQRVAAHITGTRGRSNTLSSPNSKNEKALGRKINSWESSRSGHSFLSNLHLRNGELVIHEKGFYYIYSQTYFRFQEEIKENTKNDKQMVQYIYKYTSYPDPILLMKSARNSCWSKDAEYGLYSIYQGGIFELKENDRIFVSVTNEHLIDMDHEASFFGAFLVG
Sequence of Apo-2L (O14763 56-184 partner limits assumed): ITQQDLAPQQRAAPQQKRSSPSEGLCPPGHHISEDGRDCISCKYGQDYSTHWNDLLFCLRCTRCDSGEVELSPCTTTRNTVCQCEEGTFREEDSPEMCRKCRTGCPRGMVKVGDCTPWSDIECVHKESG

CCCC[C@@H](C=O)NC(=O)[C@H](CC(C)C)NC(=O)[C@H](CC(C)C)NC(C)=O [ALLN, N-acetyl-Leu-Leu-norleucinal] (Ac-Leu-Leu-[Nle]-aldehyde)
level of Apo-2L-induced apoptosis (HeLa cells [1]; HeLa cells preincubated 1 hour with ALLN 40 μg/ml): increased

COC(=O)CC[C@H](NC(=O)[C@H](CC(=O)OC)NC(=O)OCc1ccccc1)C(=O)N[C@H](C(=O)N[C@@H](CC(=O)OC)C(=O)CF)C(C)C [DEVD-fmk]
apoptosis induction by Apo-2 (HeLa cells [2]): blocked

C[C@@H]1C[C@@H]([C@H](O)CC2CC(=O)NC(=O)C2)C(=O)[C@@H](C)C1 [cyclohexamide]
level of Apo-2L-induced apoptosis (HeLa cells [1]; HeLa cells preincubated 1 hour with cyclohexamide 50 μg/ml): increased

COC(=O)C[C@H](NC(=O)[C@H](C)NC(=O)[C@@H](NC(=O)OCc1ccccc1)C(C)C)C(=O)CF [z-VAD-fmk] (Cbz-Val-Ala-Asp(OMe)-CH2F)
apoptosis induction by Apo-2 (HeLa cells [2]): blocked

Apo-2 ECD immunoadhesin: Apo-2 ECD (amino acids 1-184) fused to the hinge and Fc region of human immunoglobulin G1 heavy chain
IC50 (HeLa cells [3]; dose-response analysis of inhibition of Apo-2L-induced apoptosis, HeLa cells, FIG. 11E, read-out: half-maximal inhibition): ~300 pM

Apo-2 ECD: soluble Apo-2 extracellular domain (amino acid residues 1-184) fused to a C-terminal Flag epitope tag
complex formation with Apo-2L (Apo-2L): can associate with each other | blocking of Apo-2L action (apoptosis) (HeLa cells [3]; Apo-2 ECD 5 μg/ml with anti-Flag antibody 1 μg/ml, pre-incubated 1 hour with Apo-2L 0.5 μ/ml, HeLa cells, FIG. 11D): capable of blocking Apo-2L action | binding to Fas/Apo-1 ligand (Fas/Apo-1 ligand): not capable of binding | binding to TNF-alpha (TNF-alpha): not capable of binding | binding to lymphotoxin-alpha (lymphotoxin-alpha): not capable of binding

Apo-2: full-length native sequence human Apo-2, 411 amino acid type I transmembrane protein with death domain; expressed by transfection
apoptosis of transfected 293 cells (Human 293 cells): marked apoptosis | NF-κB activation upon transfection (NF-κB [4]): significant NF-κB activation

Apo-2L: Apo-2 ligand (also referred to as TRAIL), TNF family cytokine; soluble form as in Pitti et al.
apoptosis in HeLa cells (HeLa cells [3]; soluble Apo-2L 0.5 μ/ml, 5 hour incubation, FACS, FIG. 11D): marked apoptosis | NF-κB activation in treated HeLa cells (NF-κB [5]): significant NF-κB activation

DR4: TNF receptor family member with cytoplasmic death domain, receptor for Apo-2 ligand; expressed by transfection [reference compound]
NF-κB activation upon transfection (NF-κB [4]): significant NF-κB activation
